Source: patent US8415321B2, “Nucleoside derivatives for treatment of Caliciviridae infections, including Norovirus infections” (priority 2008, dated 2013)

Test system: Norwalk GI.1 replicon
Test: Norwalk GI.1 replicon assay (in vitro anti-viral activity)
Format: cell-based
Conditions: Norovirus
From the text: The Norwalk GI.1 strain (Chang, K. O., et al. (2006) Virology 353:463-473), the GII-4 strain replicon, as well other Norovirus replicons can be used in assays to determine the in vitro antiviral activity of the compounds described herein, or other compounds or compound libraries. In some embodiments, the replicon systems are subgenomic and therefore allow evaluation of small molecule inhibitors of non-structural proteins. This can provide the same benefits to Norovirus drug discovery that Hepatitis C replicons contributed to the discovery of therapeutics useful for treatment of that virus (Stuyver, L. J., et al. (2006) Antimicrob. Agents Chemother. 47:244-254).

CC1(O)C(O)[C@@H](CO)O[C@H]1n1ccc(N)nc1=O (some centres unmarked) [2′-C-methyl-cytosine]
EC50: 2.1 µM
EC90: 8.9 µM
